Key:
Experiment in all cases: relative viability (nuclei count vs DMSO), 5 days (fraction); higher = more cells survive
Navitoclax = compound: CC1(C)CCC(c2ccc(Cl)cc2)=C(CN2CCN(c3ccc(C(=O)NS(=O)(=O)c4ccc(N[C@H](CCN5CCOCC5)CSc5ccccc5)c(S(=O)(=O)C(F)(F)F)c4)cc3)CC2)C1 [Navitoclax]
Procedure, shortened: (§1)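 Viability was defined as treated-well nuclei divided by vehicle-well nuclei, with the median taken over replicate plates. Cells from lung cancer lines sat overnight at 37 °C in 1536-well plates, received five √10-spaced library-drug doses by pinning on vehicle-anchored plates, and grew 5 days without medium change before one-step fixation, permeabilisation and Hoechst staining, 4× imaging and MetaXpress nuclear counts. Only plates with control CV under 25% and at least one doubling were kept.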

XAV939 = compound: Oc1nc(-c2ccc(C(F)(F)F)cc2)nc2c1CSCC2 [XAV939]
Procedure, shortened: as §1

C-75 = compound: CCCCCCCC[C@H]1[C@@H](C(=C)C(=O)O1)C(=O)O [C-75]
Procedure, shortened: as §1

[1] = compound: O=C(O)c1ccc(-c2c[nH]c3ncc(-c4ccccc4)cc23)cc1C1CCCC1
Procedure, shortened: as §1

AZD7762 = compound: NC(=O)Nc1cc(-c2cccc(F)c2)sc1C(=O)N[C@H]1CCCNC1 [AZD7762]
Procedure, shortened: as §1

Work on NCI-H441 yielded a relative viability (Navitoclax; 0.005 µM) of 0.981, a relative viability (Navitoclax; 0.01581 µM) of 1.07 and a relative viability (Navitoclax; 0.05 µM) of 1.06. For the same cell line, the relative viability (Navitoclax; 0.1581 µM) was 1.11, the relative viability (Navitoclax; 0.5 µM) was 0.986 and the relative viability (Navitoclax; 0.5 µM, anchor plate) was 0.701. The relative viability (XAV939; 0.08 µM) was 1.18, the relative viability (XAV939; 0.253 µM) was 0.962 and the relative viability (XAV939; 0.8 µM) was 1.1. The relative viability (XAV939; 2.53 µM) was 1.04, the relative viability (C-75; 0.08 µM) was 1.14 and the relative viability (C-75; 0.253 µM) was 1.09. For the same cell line, the relative viability (C-75; 0.8 µM) was 0.907, the relative viability (C-75; 2.53 µM) was 0.764 and the relative viability (C-75; 8 µM) was 0.957. For the same cell line, the relative viability ([1]; 0.04 µM) was 1.01, the relative viability ([1]; 0.1265 µM) was 1.08 and the relative viability ([1]; 0.4 µM) was 0.817. It also gave a relative viability ([1]; 1.265 µM) of 0.6, a relative viability (AZD7762; 0.01 µM) of 1.11 and a relative viability (AZD7762; 0.03162 µM) of 1.2. It also gave a relative viability (AZD7762; 0.1 µM) of 1.05, a relative viability (AZD7762; 0.2 µM, anchor plate) of 1.14 and a relative viability (AZD7762; 0.3162 µM) of 1.34. For the same cell line, the relative viability (AZD7762; 1 µM) was 1.03.
NCI-H460 gave a relative viability (Navitoclax; 0.005 µM) of 0.988, a relative viability (Navitoclax; 0.01581 µM) of 1.01 and a relative viability (Navitoclax; 0.05 µM) of 0.951. For the same cell line, the relative viability (Navitoclax; 0.1581 µM) was 0.977, the relative viability (Navitoclax; 0.5 µM) was 0.963 and the relative viability (Navitoclax; 0.5 µM, anchor plate) was 1.08. For the same cell line, the relative viability (XAV939; 0.08 µM) was 0.996, the relative viability (XAV939; 0.253 µM) was 0.88 and the relative viability (XAV939; 0.8 µM) was 0.944. The relative viability (XAV939; 2.53 µM) was 0.929, the relative viability (C-75; 0.08 µM) was 1.01 and the relative viability (C-75; 0.253 µM) was 1.04. It also gave a relative viability (C-75; 0.8 µM) of 0.922, a relative viability (C-75; 2.53 µM) of 0.768 and a relative viability (C-75; 8 µM) of 0.946. The relative viability ([1]; 0.04 µM) was 1.01, the relative viability ([1]; 0.1265 µM) was 1.05 and the relative viability ([1]; 0.4 µM) was 0.991. The relative viability ([1]; 1.265 µM) was 0.92, the relative viability (AZD7762; 0.01 µM) was 1.06 and the relative viability (AZD7762; 0.03162 µM) was 1. It also gave a relative viability (AZD7762; 0.1 µM) of 1.01, a relative viability (AZD7762; 0.2 µM, anchor plate) of 0.618 and a relative viability (AZD7762; 0.3162 µM) of 0.954. It also gave a relative viability (AZD7762; 1 µM) of 0.387.
NCI-H520 showed a relative viability (Navitoclax; 0.005 µM) of 0.997, a relative viability (Navitoclax; 0.01581 µM) of 0.925 and a relative viability (Navitoclax; 0.05 µM) of 1.14. For the same cell line, the relative viability (Navitoclax; 0.1581 µM) was 0.99, the relative viability (Navitoclax; 0.5 µM) was 0.94 and the relative viability (Navitoclax; 0.5 µM, anchor plate) was 1.12. It also gave a relative viability (XAV939; 0.08 µM) of 1.09, a relative viability (XAV939; 0.253 µM) of 0.965 and a relative viability (XAV939; 0.8 µM) of 0.87. For the same cell line, the relative viability (XAV939; 2.53 µM) was 0.928, the relative viability (C-75; 0.08 µM) was 1.02 and the relative viability (C-75; 0.253 µM) was 1.21. For the same cell line, the relative viability (C-75; 0.8 µM) was 0.952, the relative viability (C-75; 2.53 µM) was 0.615 and the relative viability (C-75; 8 µM) was 0.825. The relative viability ([1]; 0.04 µM) was 1.03, the relative viability ([1]; 0.1265 µM) was 0.894 and the relative viability ([1]; 0.4 µM) was 1.01. It also gave a relative viability ([1]; 1.265 µM) of 0.902, a relative viability (AZD7762; 0.01 µM) of 1.09 and a relative viability (AZD7762; 0.03162 µM) of 1.01. It also gave a relative viability (AZD7762; 0.1 µM) of 0.972, a relative viability (AZD7762; 0.3162 µM) of 0.89 and a relative viability (AZD7762; 1 µM) of 0.337.
Work on NCI-H522 yielded a relative viability (Navitoclax; 0.005 µM) of 0.841, a relative viability (Navitoclax; 0.01581 µM) of 1.12 and a relative viability (Navitoclax; 0.05 µM) of 1.03. For the same cell line, the relative viability (Navitoclax; 0.1581 µM) was 0.912, the relative viability (Navitoclax; 0.5 µM) was 0.978 and the relative viability (XAV939; 0.08 µM) was 0.962. The relative viability (XAV939; 0.253 µM) was 0.901, the relative viability (XAV939; 0.8 µM) was 0.983 and the relative viability (XAV939; 2.53 µM) was 0.881. For the same cell line, the relative viability (C-75; 0.08 µM) was 0.97, the relative viability (C-75; 0.253 µM) was 0.898 and the relative viability (C-75; 0.8 µM) was 1.02. It also gave a relative viability (C-75; 2.53 µM) of 0.721, a relative viability (C-75; 8 µM) of 0.873 and a relative viability ([1]; 0.04 µM) of 0.851. For the same cell line, the relative viability ([1]; 0.1265 µM) was 1.13, the relative viability ([1]; 0.4 µM) was 0.83 and the relative viability ([1]; 1.265 µM) was 0.945. The relative viability (AZD7762; 0.01 µM) was 1.02, the relative viability (AZD7762; 0.03162 µM) was 1.15 and the relative viability (AZD7762; 0.1 µM) was 0.955. The relative viability (AZD7762; 0.2 µM, anchor plate) was 0.841, the relative viability (AZD7762; 0.3162 µM) was 0.939 and the relative viability (AZD7762; 1 µM) was 0.839.
NCI-H596 showed a relative viability (Navitoclax; 0.005 µM) of 1.07, a relative viability (Navitoclax; 0.01581 µM) of 0.942 and a relative viability (Navitoclax; 0.05 µM) of 0.711. For the same cell line, the relative viability (Navitoclax; 0.1581 µM) was 0.964, the relative viability (Navitoclax; 0.5 µM) was 1.04 and the relative viability (Navitoclax; 0.5 µM, anchor plate) was 0.936. For the same cell line, the relative viability (XAV939; 0.08 µM) was 1.1, the relative viability (XAV939; 0.253 µM) was 1.02 and the relative viability (XAV939; 0.8 µM) was 1.11. The relative viability (XAV939; 2.53 µM) was 1.03, the relative viability (C-75; 0.08 µM) was 1.01 and the relative viability (C-75; 0.253 µM) was 1.14. The relative viability (C-75; 0.8 µM) was 0.909, the relative viability (C-75; 2.53 µM) was 0.852 and the relative viability (C-75; 8 µM) was 0.997. The relative viability ([1]; 0.04 µM) was 0.927, the relative viability ([1]; 0.1265 µM) was 0.982 and the relative viability ([1]; 0.4 µM) was 1.02. The relative viability ([1]; 1.265 µM) was 0.971, the relative viability (AZD7762; 0.01 µM) was 1.07 and the relative viability (AZD7762; 0.03162 µM) was 1.08. For the same cell line, the relative viability (AZD7762; 0.1 µM) was 1.08, the relative viability (AZD7762; 0.2 µM, anchor plate) was 1.1 and the relative viability (AZD7762; 0.3162 µM) was 0.929. It also gave a relative viability (AZD7762; 1 µM) of 0.891.
With NCI-H647 the relative viability (Navitoclax; 0.005 µM) was 0.859, the relative viability (Navitoclax; 0.01581 µM) was 1.04 and the relative viability (Navitoclax; 0.05 µM) was 1.13. It also gave a relative viability (Navitoclax; 0.1581 µM) of 0.871, a relative viability (Navitoclax; 0.5 µM) of 0.881 and a relative viability (Navitoclax; 0.5 µM, anchor plate) of 1.12. The relative viability (XAV939; 0.08 µM) was 1.02, the relative viability (XAV939; 0.253 µM) was 0.845 and the relative viability (XAV939; 0.8 µM) was 0.918. It also gave a relative viability (XAV939; 2.53 µM) of 0.866, a relative viability (C-75; 0.08 µM) of 0.919 and a relative viability (C-75; 0.253 µM) of 0.996. It also gave a relative viability (C-75; 0.8 µM) of 0.74, a relative viability (C-75; 2.53 µM) of 0.915 and a relative viability (C-75; 8 µM) of 0.78. It also gave a relative viability ([1]; 0.04 µM) of 0.975, a relative viability ([1]; 0.1265 µM) of 1.03 and a relative viability ([1]; 0.4 µM) of 0.908. For the same cell line, the relative viability ([1]; 1.265 µM) was 0.709, the relative viability (AZD7762; 0.01 µM) was 1.04 and the relative viability (AZD7762; 0.03162 µM) was 1.14. It also gave a relative viability (AZD7762; 0.1 µM) of 0.923, a relative viability (AZD7762; 0.2 µM, anchor plate) of 0.505 and a relative viability (AZD7762; 0.3162 µM) of 0.616. It also gave a relative viability (AZD7762; 1 µM) of 0.194.
NCI-H650 was tested, and the relative viability (Navitoclax; 0.005 µM) was 0.908, the relative viability (Navitoclax; 0.01581 µM) was 0.97 and the relative viability (Navitoclax; 0.05 µM) was 0.956. It also gave a relative viability (Navitoclax; 0.1581 µM) of 0.853, a relative viability (Navitoclax; 0.5 µM) of 1.04 and a relative viability (XAV939; 0.08 µM) of 1.03. It also gave a relative viability (XAV939; 0.253 µM) of 1.08, a relative viability (XAV939; 0.8 µM) of 0.99 and a relative viability (XAV939; 2.53 µM) of 0.824. The relative viability (C-75; 0.08 µM) was 0.916, the relative viability (C-75; 0.253 µM) was 0.875 and the relative viability (C-75; 0.8 µM) was 0.862. It also gave a relative viability (C-75; 2.53 µM) of 0.87, a relative viability (C-75; 8 µM) of 0.817 and a relative viability ([1]; 0.04 µM) of 0.908. It also gave a relative viability ([1]; 0.1265 µM) of 1.03, a relative viability ([1]; 0.4 µM) of 0.77 and a relative viability ([1]; 1.265 µM) of 0.67. It also gave a relative viability (AZD7762; 0.01 µM) of 1.08, a relative viability (AZD7762; 0.03162 µM) of 1.05 and a relative viability (AZD7762; 0.1 µM) of 0.905. The relative viability (AZD7762; 0.2 µM, anchor plate) was 1.03, the relative viability (AZD7762; 0.3162 µM) was 0.954 and the relative viability (AZD7762; 1 µM) was 0.914.

— the supplement of paper PMC10307832
